Like-named read-outs stand apart in the source and are kept apart here.
How the values were obtained:
[1] = system: BT-20 and PC-3 cells; test: Clonogenic assay, pooled 4 experiments (2 PC-3, 2 BT-20); assay type: cell-based, human
Protocol: (§1) Clonogenic Assays. The cytotoxicity of cinchona alkaloids was tested against clonogenic human cancer cells was examined using a methylcellulose colony assay system, as described previously (Uckun, F. M. et al., J. Exp. Med., 1986, 163: 347-68; Uckun, F. M. et al., J. Clin. Invest., 1993, 91: 1044-1051). In brief, cells (10^5 cells/ml in RPMI-10% fetal bovine serum) were treated for 8 hours at 37° C. with cinchona alkaloids at varying concentrations. After treatment, cells were washed twice, and resuspended in clonogenic medium consisting of RPMI 1640 supplemented with 0.9% methylcellulose, 10% fetal bovine serum, and 50 μM 2-mercaptoethanol. Cells were plated at 5×10^4 cells/ml in RPMI 1640 supplemented with 10% fetal bovine serum, and 0.9% methylcellulose in duplicate 35-mm Petri dishes, and cultured for 7 days at 37° C. in a humidified 5% CO2 incubator. Subsequently, cancer cell colonies were enumerated on a grid using an inverted phase-contrast microscope of high optical resolution. Results were expressed as the % Inhibition=[1−(Number of colonies in compound-treated test cultures/Number of colonies in vehicle-treated control cultures)]×100.
as §1, with “cytotoxicity of synthetic dimeric cinchona alkaloids” for “cytotoxicity of cinchona alkaloids”

[2] = system: ALL-1 BCR-ABL/Ph+ B-lineage ALL cell line; test: Clonogenic assay (methylcellulose colony assay); assay type: cell-based, human; conditions: for in vitro colony formation by ALL-1 cells: 10 μM
Protocol: as §1
as §1, with “cytotoxicity of synthetic dimeric cinchona alkaloids” for “cytotoxicity of cinchona alkaloids”

[3] = system: BT-20 triple-negative breast cancer cell line; test: Clonogenic assay (methylcellulose colony assay); assay type: cell-based, human
Protocol: as §1
as §1, with “cytotoxicity of synthetic dimeric cinchona alkaloids” for “cytotoxicity of cinchona alkaloids”

[4] = system: PC-3 castration-resistant prostate cancer cell line; test: Clonogenic assay (methylcellulose colony assay); assay type: cell-based, human; conditions: for inhibition at 3 µM / IC50 / inhibition at 1 µM / inhibition at 10 µM: Homo sapiens
Protocol: as §1
as §1, with “cytotoxicity of synthetic dimeric cinchona alkaloids” for “cytotoxicity of cinchona alkaloids”

[5] = system: RAJI (Burkitt's leukemia/lymphoma) cell line; test: Flow cytometric Annexin V-FITC/PI apoptosis assay; assay type: cell-based, human; conditions: for IC50: Homo sapiens, read-out: IC50 (apoptosis)
Source text: (§2) Cell lines and Apoptosis Assays. We used the human leukemia cell lines ALL-1 (Ph+ adult ALL, B-lineage), LOUCY (adult T-lineage ALL; ATCC® CRL-2629™), and RAJI (Burkitt's leukemia/lymphoma; ATCC®, CCL-86) as targets to evaluate the anti-leukemic activity of cinchona alkaloids. In vivo leukemia initiating xenograft clones capable of causing disseminated and fatal leukemia in NOD-SCID mice, derived from primary leukemia cells of 5 patients with relapsed ALL, and the aforementioned 3 leukemia cells lines were treated for 24 hours or 48 hours at 37° C. with cinchona alkaloids at increasing concentrations ranging from 0.5 μM to 50 μM. Controls cells were treated with vehicle (PBS).
(§3) Apoptotic death was monitored using multiparameter flow cytometry, as previously reported (Uckun, F. M. et al., British Journal of Haematology, 2011, 153:741-752; Uckun, F. M. et al., J Clin Invest., 2015, 125:1006-18). Controls included vehicle (PBS) treated cells (CON). Cells were analyzed for apoptosis using the standard quantitative flow cytometric apoptosis assay using the Annexin V-FITC Apoptosis Detection Kit from Sigma. The labeled cells were analyzed on a LSR II flow cytometer. The percent apoptosis was calculated using the formula: 100−100×(Percentage of non-apoptotic cells in test sample/Percentage of non-apoptotic cells in untreated control sample). The percentages for Annexin V FITC^−PI^− viable cells and Annexin V-FITC^+PI^+ advanced apoptotic cells for each sample are indicated in the respective quadrants of the depicted two-color fluorescence dot plots.
as §2, with “We” for “Cell lines and Apoptosis Assays. We”, “ARES-BI-C001453. […]” for “cinchona alkaloids.”, “ARES-BI-C001453” for “cinchona alkaloids”

[6] = system: LOUCY (adult T-lineage ALL) cell line; test: Flow cytometric Annexin V-FITC/PI apoptosis assay; assay type: cell-based, human; conditions: for IC50: Homo sapiens, read-out: IC50 (apoptosis)
Source text: as §2, §3
as §2, with “We” for “Cell lines and Apoptosis Assays. We”, “ARES-BI-C001453. […]” for “cinchona alkaloids.”, “ARES-BI-C001453” for “cinchona alkaloids”

[7] = system: ALL-1 (Ph+ adult ALL, B-lineage) cell line; test: Flow cytometric Annexin V-FITC/PI apoptosis assay; assay type: cell-based, human; conditions: for IC50: Homo sapiens, read-out: IC50 (apoptosis)
Source text: as §2, §3
as §2, with “We” for “Cell lines and Apoptosis Assays. We”, “ARES-BI-C001453. […]” for “cinchona alkaloids.”, “ARES-BI-C001453” for “cinchona alkaloids”

[8] = Flow cytometric Annexin V-FITC/PI apoptosis assay, combined data sets; assay type: cell-based; conditions: Homo sapiens, Raji, 24 or 48 hours treatment, 0.5-50 μM, read-out: estimated IC50 (apoptosis)
Source text: as §2
as §3, with “The percentages for Annexin V FITC^−PI^− viable cells and Annexin V-FITC^+PI^+ advanced apoptotic cells for each sample are indicated in the respective quadrants of the depicted two-color fluorescence dot plots.” left out

SMILES: CCC1CN2CCC1CC2C(Oc1nnc(OC(c2ccnc3ccc(OC)cc23)C2CC3CCN2CC3CC)c2ccccc12)c1ccnc2ccc(OC)cc12 (centres unmarked) [Compound C61, 1,4-Bis (9-O dihydroquinidinyl)phthalazine/hydroquinidine 1,4-phathalazinediyl diether, reference compound]
- inhibition of clonogenic growth (mean±SE) ([1]; 10 μM, BT-20 and PC-3): 53.2±11.3%
- mean number of residual clones forming colonies ([1]; 10 μM, BT-20 and PC-3): 59.8±6.3 /5×10^4 cells
- in vitro colony formation by ALL-1 cells [2]: abrogated the in vitro colony formation
- % Inhibition ([2]; ALL-1 EXP#1, 10 μM): >99.7%
- Colonies/5 × 10^4 Cells ([2]; ALL-1 EXP#1, 10 μM): 0.0 Colonies/5 × 10^4 Cells
- % Inhibition ([2]; ALL-1 EXP#2, 10 μM): >99.6%
- Colonies/5 × 10^4 Cells ([2]; ALL-1 EXP#2, 10 μM): 0.0 Colonies/5 × 10^4 Cells
- % Inhibition ([3]; BT-20 EXP#1, 10 μM): 45.9%
- Colonies/5 × 10^4 Cells ([3]; BT-20 EXP#1, 10 μM): 53.0 Colonies/5 × 10^4 Cells
- % Inhibition ([3]; BT-20 EXP#2, 10 μM): 31.6%
- Colonies/5 × 10^4 Cells ([3]; BT-20 EXP#2, 10 μM): 78.0 Colonies/5 × 10^4 Cells
- inhibition of clonogenic growth ([4]; PC3 cells, 10 μM): 67.7%
- % Inhibition ([4]; PC-3 EXP#1, 10 μM): 77.9%
- Colonies/5 × 10^4 Cells ([4]; PC-3 EXP#1, 10 μM): 41.0 Colonies/5 × 10^4 Cells
- % Inhibition ([4]; PC-3 EXP#2, 10 μM): 57.5%
- Colonies/5 × 10^4 Cells ([4]; PC-3 EXP#2, 10 μM): 67.0 Colonies/5 × 10^4 Cells

SMILES: CCC1CC23[C@H]([C@H](Oc4nnc(O[C@@H](c5ccnc6ccc(OC)cc56)[C@H]5CC6CCN5CCC6(O)CC)c5ccccc45)c4ccnc5ccc(OC)cc45)N2CC[C@@H]13 (some centres unmarked) [ARES-BI-C002453]
- IC50 ([5]; Raji): 16700 nM
- fold higher IC50 value than ARES-BI-C001453 ([5]; RAJI): 1.9 fold
- IC50 [6]: 1500 nM
- fold higher IC50 value than ARES-BI-C001453 ([6]; LOUCY): 35.7 fold
- fold higher IC50 value than ARES-BI-C001453 ([7]; ALL-1): 9.4 fold
- IC50 [7]: 7300 nM

SMILES: CCC1(O)CCN2CCC1C[C@@H]2[C@@H](Oc1nnc(O[C@H](c2ccnc3ccc(OC)cc23)[C@@H]2N3CC[C@H]4C(O)(CC)CC243)c2ccccc12)c1ccnc2ccc(OC)cc12 (mixture of isomers) [ARES-BI-C001453]
- mean number of residual clones forming colonies ([1]; 1 μM, BT-20 and PC-3): 20.9±5.3 /5×10^4 cells
- inhibition at 1 µM ([1]; Homo sapiens, 1 μM, 4 experiments (2 PC-3, 2 BT-20), read-out: inhibition of clonogenic growth (mean±SE)): 82.6 ± 8.1%
- inhibition at 10 µM ([1]; Homo sapiens, 10 μM, BT-20 and PC-3, read-out: inhibition of clonogenic growth (mean±SE)): 99.2 ± 0.2%
- IC50 [8]: 8600 nM
- IC50 ([5]; RAJI, side by side comparison): 8900 nM
- IC50 ([6]; LOUCY, side by side comparison): 42 nM
- IC50 ([7]; ALL-1, side by side comparison): 780 nM
- in vitro colony formation by ALL-1 cells [2]: abrogated the in vitro colony formation
- Colonies/5 × 10^4 Cells ([2]; ALL-1 EXP#1, 1 μM): 27.5 Colonies/5 × 10^4 Cells
- Colonies/5 × 10^4 Cells ([2]; ALL-1 EXP#1, 3 μM): 32.0 Colonies/5 × 10^4 Cells
- Colonies/5 × 10^4 Cells ([2]; ALL-1 EXP#1, 10 μM): 0.0 Colonies/5 × 10^4 Cells
- Colonies/5 × 10^4 Cells ([2]; ALL-1 EXP#2, 1 μM): 99.5 Colonies/5 × 10^4 Cells
- Colonies/5 × 10^4 Cells ([2]; ALL-1 EXP#2, 3 μM): 14.5 Colonies/5 × 10^4 Cells
- Colonies/5 × 10^4 Cells ([2]; ALL-1 EXP#2, 10 μM): 0.0 Colonies/5 × 10^4 Cells
- inhibition at 1 µM ([2]; Homo sapiens, ALL-1 EXP#1, 1 μM): 91.5%
- inhibition at 3 µM ([2]; Homo sapiens, ALL-1 EXP#1, 3 μM): 90.1%
- inhibition at 10 µM ([2]; Homo sapiens, ALL-1 EXP#1, 10 μM): > 99.7%
- inhibition at 1 µM ([2]; Homo sapiens, ALL-1 EXP#2, 1 μM): 56.1%
- inhibition at 3 µM ([2]; Homo sapiens, ALL-1 EXP#2, 3 μM): 93.6%
- inhibition at 10 µM ([2]; Homo sapiens, ALL-1 EXP#2, 10 μM): > 99.6%
- IC50 ([2]; Homo sapiens, ALL-1, two independent experiments, non-linear regression, read-out: IC50, inhibition of clonogenic growth): 290 nM
- Colonies/5 × 10^4 Cells ([3]; BT-20 EXP#1, 1 μM): 21.5 Colonies/5 × 10^4 Cells
- Colonies/5 × 10^4 Cells ([3]; BT-20 EXP#1, 3 μM): 10.0 Colonies/5 × 10^4 Cells
- Colonies/5 × 10^4 Cells ([3]; BT-20 EXP#1, 10 μM): 0.0 Colonies/5 × 10^4 Cells
- Colonies/5 × 10^4 Cells ([3]; BT-20 EXP#2, 1 μM): 40.0 Colonies/5 × 10^4 Cells
- Colonies/5 × 10^4 Cells ([3]; BT-20 EXP#2, 3 μM): 9.5 Colonies/5 × 10^4 Cells
- Colonies/5 × 10^4 Cells ([3]; BT-20 EXP#2, 10 μM): 1.0 Colonies/5 × 10^4 Cells
- inhibition at 1 µM ([3]; Homo sapiens, BT-20, BT-20 EXP#1, 1 μM): 78%
- inhibition at 3 µM ([3]; Homo sapiens, BT-20, BT-20 EXP#1, 3 μM): 89.8%
- inhibition at 10 µM ([3]; Homo sapiens, BT-20, BT-20 EXP#1, 10 μM): > 98.9%
- inhibition at 1 µM ([3]; Homo sapiens, BT-20, BT-20 EXP#2, 1 μM): 64.9%
- inhibition at 3 µM ([3]; Homo sapiens, BT-20, BT-20 EXP#2, 3 μM): 91.7%
- inhibition at 10 µM ([3]; Homo sapiens, BT-20, BT-20 EXP#2, 10 μM): 99.1%
- IC50 ([3]; Homo sapiens, BT-20, two independent experiments, non-linear regression, read-out: IC50, inhibition of clonogenic growth): 369 nM
- inhibition at 3 µM ([4]; PC-3, PC3 cells, 3 μM, read-out: inhibition of clonogenic growth): > 99%
- IC50 ([4]; PC-3, PC3 cells, read-out: estimated IC50, clonogenic growth): 129 nM
- inhibition at 1 µM ([4]; PC-3 EXP#1, 1 μM): 91.9%
- inhibition at 3 µM ([4]; PC-3 EXP#1, 3 μM, read-out: % Inhibition): 99.7%
- inhibition at 10 µM ([4]; PC-3 EXP#1, 10 μM): 99.5%
- inhibition at 1 µM ([4]; PC-3 EXP#2, 1 μM): 95.6%
- inhibition at 3 µM ([4]; PC-3 EXP#2, 3 μM, read-out: % Inhibition): 99.4%
- inhibition at 10 µM ([4]; PC-3 EXP#2, 10 μM): 99.4%
- IC50 ([4]; PC-3, two independent experiments, non-linear regression, read-out: IC50, inhibition of clonogenic growth): 56 nM
- Colonies/5 × 10^4 Cells ([4]; PC-3 EXP#1, 1 μM): 15.0 Colonies/5 × 10^4 Cells
- Colonies/5 × 10^4 Cells ([4]; PC-3 EXP#1, 3 μM): 0.5 Colonies/5 × 10^4 Cells
- Colonies/5 × 10^4 Cells ([4]; PC-3 EXP#1, 10 μM): 1.0 Colonies/5 × 10^4 Cells
- Colonies/5 × 10^4 Cells ([4]; PC-3 EXP#2, 1 μM): 7.0 Colonies/5 × 10^4 Cells
- Colonies/5 × 10^4 Cells ([4]; PC-3 EXP#2, 3 μM): 1 Colonies/5 × 10^4 Cells
- Colonies/5 × 10^4 Cells ([4]; PC-3 EXP#2, 10 μM): 1 Colonies/5 × 10^4 Cells

From US11649232B2, “Synthetic dimeric cinchona alkaloids against cancer” (Ares Pharmaceuticals, LLC, priority 2021, dated 2023)
